Source: paper PMC10694292, “Increased sinusoidal export of drug glucuronides is a compensative mechanism in liver cirrhosis of mice” (Frontiers in Pharmacology, 2023)
Several values for one entry are separate records, joined by “and”; a condition that tells them apart may be missing. Identical values can stand only once. Like-named read-outs stand apart in the source and are kept apart here.

Experiments:
[1] = Drug cocktail i.v. in mice: 24 h urine, fraction of dose excreted; details: for Fraction of dose in urine (24 h), cirrhotic vs control mice: i.v. drug cocktail; for Mean fraction of dose excreted to urine: mice, after drug cocktail administration
[2] = cited from earlier work
[3] = human, cited from earlier work
[4] = Drug cocktail i.v. in CCl4-cirrhotic and control mice: plasma concentrations and AUC; details: for Measured plasma concentrations in cirrhotic mice vs PBPK-predicted concentrations: 15-120 min after cocktail, prediction with CYP activity at 11%; for Measured plasma concentrations of parent compound in cirrhotic mice: accompanying increased glucuronides; for Phase I metabolite in blood (formation), cirrhotic vs control, experimental data: i.v. drug cocktail
[5] = Chronic CCl4 treatment (12 months): blood chemistry and bile acids; format: in vivo, mice
Method: Male C57 Black 6/N 8–10-week-old mice were used (Janvier Labs, France). The mice were housed under standard environmental conditions with ad libitum feeding on a normal rodent diet (Ssniff, Soest, Germany) and with free access to water. To induce chronic liver damage, the mice were treated repeatedly with carbon tetrachloride (CCl4, 1 G/kg intraperitoneal) twice per week for 12 months ([Ghallab et al., 2019b]; [Holland et al., 2022]). The control mice received the vehicle only (olive oil, application volume 4 mL/kg intraperitoneal). On day 6, after the last CCl4/oil injection, blood as well as liver tissue samples were collected, as previously described ([Ghallab et al., 2016]). All experiments were approved by the local animal protection authorities (application number: 84-02.04.2017. A177).
ALT, AST, and ALP activities as well as albumin concentrations of plasma samples were measured with a 1:1 dilution in PBS using a Piccolo Xpress® chemistry analyzer and General Chemistry 13 panels (Hitado, Möhnesee, Germany).
Plasma concentrations of bile acids were analyzed using negative electrospray (ESI) liquid chromatography-tandem mass spectrometry (LC-MS/MS), as previously described ([Ghallab et al., 2022]).

[6] = humans, cited from earlier work; for Recovered from urine: after a single oral dose, ref Knauf and Mutschler, 1998, FDA
[7] = cited from earlier work; remark: listed apart in the source
[8] = cited from earlier work; remark: listed apart in the source
[9] = mouse, in vivo
[10] = Drug cocktail i.v. in mice: 2 h bile, fraction of dose excreted; details: for Mean fraction of dose excreted to bile: mice, 2 h after drug administration
[11] = cited from earlier work; remark: listed apart in the source
[12] = rat, cited from earlier work
[13] = human, cited from earlier work; remark: listed apart in the source
[14] = cited from earlier work; remark: listed apart in the source
[15] = DrugBank, predicted AlogPS, ref Wishart et al., 2017
[16] = DrugBank, predicted ChemAxon, ref Wishart et al., 2017
[17] = experimental, ref Vree and Verwey-van Wissen
[18] = DrugBank, experimental, ref Wishart et al., 2017
[19] = experimental (morphine: logP uncharged), ref Avdeef, 1996
[20] = DrugBank, ref Wishart et al., 2017
[21] = optimized (mouse), ref Schenk et al., 2017
[22] = predicted ACD, ref Nguyen et al., 2016
[23] = predicted, ref Wishart et al., 2017
[24] = optimized, ref Krauss et al., 2017

In the case of `COc1ccc2c3c1O[C@H]1[C@@H](O[C@@H]4O[C@H](C(=O)O)[C@@H](O)[C@H](O)[C@H]4O)C=C[C@H]4[C@@H](C2)N(C)CC[C@@]341` [C6G, codeine-6-glucuronide], the “Fraction of dose in urine (24 h), cirrhotic vs control mice” value (from here on “Fraction of dose … vs control mice”) [1] is listed as “higher”, the “Mean fraction of dose excreted to urine” value [1] is listed as 1% and the Lipophilicity [2, 15] is listed as -0.23. For the same compound, the Solubility [2, 15] was 4310 µg/mL, the Lipophilicity [2, 16] was -2.8 and the Fraction unbound [3, 17] was 0.44. For the same compound, the “Measured plasma concentrations in cirrhotic mice vs PBPK-predicted concentrations” value [4] was “much higher”.

For `ClC(Cl)(Cl)Cl` [CCl4, carbon tetrachloride], the “Plasma ALT” value ([5]; CCl4 1 g/kg i.p. twice per week, 12 months, vs oil) was “increased”, the ALP ([5]; CCl4 12 months vs oil) was “no significant changes” and the Albumin ([5]; CCl4 12 months vs oil) was “no significant changes”. The “Plasma AST” value ([5]; CCl4 12 months vs oil) was “increased” and the “Serum bile acid levels” value ([5]; CCl4 12 months vs oil) was “increased”.

In the case of `Cn1c(=O)c2c(ncn2C)n(C)c1=O` [Caffeine, caffeine], the “Fraction excreted unchanged to urine” value ([6]; ref Nehlig, 2018) is given as 0.5-2%, the “Share of systemic clearance due to Cyp1a2” value ([7]; C57BL/6N mice, ref Buters et al., 1996) is given as 88% and the “Fraction excreted unchanged to urine” value ([7]; mice, ref Bonati et al., 1985) is given as “about 5%”. The Fraction unbound ([8]; mouse) was 0.70 and the “Mean fraction of dose excreted to urine” value [9] was 1%.

In the case of `COc1ccc2c3c1O[C@H]1[C@@H](O)C=C[C@H]4[C@@H](C2)N(C)CC[C@@]341` [Codeine, codeine], the “Mean fraction of dose excreted to urine” value [1] is given as 3%, the Lipophilicity [2, 18] is given as 1.39 and the Lipophilicity [2, 19] is given as 1.19. For the same compound, the Fraction unbound [3, 20] was 0.75, the Fraction unbound [3, 17] was 0.44 and the “Measured plasma concentrations of parent compound in cirrhotic mice” value [4] was “decreased”. The “Mean fraction of dose excreted to bile” value [10] was “below 1%”.

For `Cc1ncc2n1-c1ccc(Cl)cc1C(c1ccccc1F)=NC2` [Midazolam, midazolam], the “Mean fraction of dose excreted to urine” value [1] is given as “below 1%”, the Solubility ([2]; Ref pH: 6.5, ref Heikkinen et al., 2012) is given as 50 µg/mL and the Lipophilicity ([2]; measurement, ref Poulin and Theil, 2002) is given as 2.95. For the same compound, the pKa ([2]; midazolam: experimental, ref Poulin and Theil, 2002) was 5.82, the Lipophilicity [2, 21] was 3.33 and the Lipophilicity ([2]; optimized, ref Britz et al., 2019) was 3.13. For the same compound, the pKa ([2]; prediction, ref Nguyen et al., 2016) was 6.04, the Lipophilicity ([2]; prediction, ref Wishart et al., 2017) was 3.89 and the pKa ([2]; ref Schenk et al., 2017) was 6.14. For the same compound, the “pKa (Base)” value ([2]; ref Wishart et al., 2017) was 6.57, the Fraction unbound ([11]; measurement, mouse, ref Varkhede et al., 2018) was 0.08 and the Fraction unbound ([11]; species not given, ref Maurer et al., 2005, Schenk et al., 2017) was 0.046. The Fraction unbound [3, 20] was 0.03, the “Measured plasma concentrations of parent compound in cirrhotic mice” value [4] was “decreased” and the Fraction unbound ([12]; ref Poulin and Theil, 2002) was 0.027.

For `CN1CC[C@]23c4c5ccc(O)c4O[C@H]2[C@@H](O)C=C[C@H]3[C@H]1C5` [Morphine, morphine], the “Mean fraction of dose excreted to urine” value [1] was 1%.

For `COc1ccc2c3c1O[C@H]1[C@@H](O)C=C[C@H]4[C@@H](C2)NCC[C@@]341` [Norcodeine, norcodeine], the “Mean fraction of dose excreted to urine” value [1] is given as 3%, the Lipophilicity [2, 15] is given as 0.99 and the Lipophilicity [2, 16] is given as 0.96. For the same compound, the Lipophilicity [2, 19] was 0.69, the “pKa (Base)” value ([2]; ref Avdeef, 1996) was 9.22 and the Fraction unbound [3, 17] was 0.765. The “Phase I metabolite in blood (formation), cirrhotic vs control, experimental data” value [4] was “reduced formation”.

In the case of `OCc1ncc2n1-c1ccc(Cl)cc1C(c1ccccc1F)=NC2` [OH-MDZ, 1-hydroxymidazolam], the “Mean fraction of dose excreted to urine” value [1] is given as “below 1%”, the Lipophilicity [2, 15] is given as 3.09 and the Solubility [2, 15] is given as 25.4 µg/mL. The Lipophilicity [2, 16] was 2.48, the Lipophilicity [2, 22] was 2.5 and the “pKa, ampholyte, first value” [2, 22] was 3.63. For the same compound, the “pKa, ampholyte, second value” [2, 22] was 13.6, the “pKa, ampholyte, first value” [2, 23] was 4.99 and the “pKa, ampholyte, second value” [2, 23] was 13.95. The Lipophilicity ([2]; ref Vossen et al., 2007) was 2.6, the Fraction unbound [8, 21] was 0.01 and the Fraction unbound ([3]; measured, ref Nguyen et al., 2016) was 0.15.

In the case of `O=C(O)[C@H]1O[C@@H](OCc2ncc3n2-c2ccc(Cl)cc2C(c2ccccc2F)=NC3)[C@H](O)[C@@H](O)[C@@H]1O` [OH-MDZ-G, 1-hydroxymidazolam glucuronide], the “Fraction of dose … vs control mice” value [1] is given as “higher”, the Lipophilicity ([2]; ref Vossen et al., 2007) is given as 1.4 and the “Measured plasma concentrations in cirrhotic mice vs PBPK-predicted concentrations” value [4] is given as “much higher”. For the same compound, the “Mean fraction of dose excreted to bile” value [10] was 1.2%.

For `CC(C)NC(=O)NS(=O)(=O)c1cnccc1Nc1cccc(CO)c1` [OH-torsemide, hydroxy torsemide], the Recovered from urine [6]; 2017 is listed as “about 10%”, the “Mean fraction of dose excreted to urine” value [1] is listed as 11% and the Lipophilicity [2, 15] is listed as 0.86. The Solubility [2, 15] was 89.8 µg/mL, the Lipophilicity [2, 16] was 0.49 and the Lipophilicity [2, 21] was 0.75. For the same compound, the Lipophilicity ([2]; optimized, human, ref Krauss et al., 2017) was 2.139, the Fraction unbound [13, 24] was 0.00191 and the “Phase I metabolite in blood (formation), cirrhotic vs control, experimental data” value [4] was “decreased formation”. For the same compound, the “Mean fraction of dose excreted to bile” value [10] was 0.8%.

For `Cn1c(=O)[nH]c2ncn(C)c2c1=O` [Paraxanthine, 1,7-Dimethylxanthine], the Solubility ([2]; DrugBank, AlogPS prediction, ref Wishart et al., 2017) is listed as 9130 µg/mL, the Lipophilicity [2, 15] is listed as -0.63 and the Lipophilicity [2, 16] is listed as 0.27. The pKa ([2]; ref FooDB) was “Neutral”, the “Mean fraction of dose excreted to urine” value [9] was 2% and the Fraction unbound ([3]; measured, ref Lelo et al., 1986) was 0.56. The Fraction unbound ([12]; measured, ref Bortolotti et al., 1985) was 0.85.

For `CC(C)(C)NCC(O)COc1ccc(NC(=O)NC2CCCCC2)cc1` (stereo not drawn) [Talinolol, talinolol], the “Median fraction of dose found in bile” value ([6]; after IV administration, ref Terhaag et al., 1989) is listed as 9.3%, the “Dose recovered unchanged from urine” value ([6]; ref Trausch et al., 1995) is listed as “about 60%” and the “Mean fraction of dose excreted to urine” value [1] is listed as 4% and < 5%. The Lipophilicity [2, 15] was 2.91, the Lipophilicity [2, 16] was 2.8 and the octanol-water partition coefficient ([2]; at pH=7.5, ref Gramatté et al., 1996) was 12. The Lipophilicity [2, 21] was 2.3, the Lipophilicity ([2]; ref Gramatté et al., 1996) was 1.08 and the Solubility ([2]; ref Gramatté et al., 1996) was 3.4 mM. The “pKa (Base)” value ([2]; ref Matthaei et al., 2016) was 9.3, the “logP from the DrugBank database as quoted in text” value ([2]; rounded values, ref DrugBank) was 2.9 and the Fraction unbound ([8]; mouse, optimized (talinolol: possibly optimized), ref Thiel et al., 2015) was 0.65. For the same compound, the Fraction unbound ([13]; possibly optimized, ref Tubic et al., 2006) was 0.45, the Fraction unbound ([3]; measured, ref Obach et al., 2008) was 0.39 and the “Amount in bile, cirrhotic vs control mice” value ([10]; 2 h bile) was “significantly increased”. The “Mean fraction of dose excreted to bile” value [10] was 0.5% and < 1%.

In the case of `Cc1cccc(Nc2ccncc2S(=O)(=O)NC(=O)NC(C)C)c1` [Torsemide, torsemide], the Recovered from urine [6]; 2017 is given as “about 20%”, the “Share excreted to urine” value ([6]; ref FDA, 2017) is given as “about 20%” and the “Share of drug clearance by hepatic metabolism” value ([6]; ref FDA, 2017) is given as “about 80%”. The “Dose found in bile” value ([14]; rat, after 8h cannulation, ref Lee et al., 2005) was “about 2%”, the “Tissue-to-plasma ratio, liver” value ([14]; ref Lee 2005) was 0.336 and the “Tissue-to-plasma ratio, muscle” value ([14]; ref Lee 2005) was 0.069. The Lipophilicity [2, 18] was 3.356, the Lipophilicity [2, 15] was 1.76 and the Solubility [2, 15] was 55.96 µg/mL. The Lipophilicity [2, 16] was 1.86, the Lipophilicity ([2]; mouse, optimized, ref Thiel et al., 2015) was 2.023 and the Lipophilicity [2, 21] was 2.3. For the same compound, the pKa ([2]; ref FDA, 2017, Wishart et al.) was 7.1, the Lipophilicity ([2]; ref Knauf and Mutschler, 1998) was 0.57 and the pKa ([2]; ref Knauf and Mutschler, 1998) was 7. The “Mean fraction of dose excreted to urine” value [9] was 4%, the “Fraction of dose … vs control mice” value ([9]; iv) was “increased significantly” and the Fraction unbound [13, 24] was 0.00125. For the same compound, the Fraction unbound ([3]; experimental, ref Knauf and Mutschler, 1998, Wishart et al., 2017) was under 0.01, the Fraction unbound ([12]; experimental, ref Lee et al., 2005) was 0.061 and the Fraction unbound ([12]; experimental, ref Lee et al., 2005, listed as torsemide) was 0.06.
